Measurements from patent US20140234868A1, “USE FOR GLYCOLIPOPROTEIN GINTONIN, ISOLATED AND IDENTIFIED FROM GINSENG, AS A NATURAL MEDICAL-PLANT DERIVED LIGAND” (KONKUK UNIVERSITY INDUSTRIAL COOPERATION CORP., priority 2011, published 2014).

B1: gintonin: ginseng-derived glycolipoprotein; structural protein of ginseng major latex-like protein (MLP151) and ribonuclease-like storage proteins; crude gintonin used in tests (protein)
chain 1: MGLTGKLICQTGIKSDGDVFHELFGTRPHHVPNITPANIQGCDLHEGEFGKVGSVVIWNYSIDGNAMIAKEEIVAIDEEDKSVTFKVVEGHLFEEFKSIVFSVHVDTKGEDNLVTWSIDYEKLNESVKDPTSYLDFLLSVTRDIEAHHLPK
chain 2: RSDYPWAMFALRLQWPAGFCEVNNACDTKSLLNTFTIHGLYPYNAKGTPALYCDGTAFDVNSVSDFLAEMHLAWPSHETNTEDIQFWEHEWKKHGRCSEALLKQTDYFRTALAFRKAFDIVGLLNQEGIYPNNDLYRPKMIKEAIKKHLNAVPEIDFTKNENSEYVLTDINVCVNQQATRFVDCPTDDATDDYRLKFVRLPSKMKFADPRTNSII

How the values were obtained:
[1] = system: NMDA receptors (NR1 and NR2); experiment: NMDA receptor activity in Xenopus oocytes, two-electrode voltage clamp; assay type: cell-based
Outline: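 Xenopus oocytes injected with NR1 and NR2 cDNA (100 ng/40 nl) and kept 4-5 days at 18 °C in ND96. Two-electrode voltage clamp at −60 mV in Mg2+-free ND96, pH 7.6. Currents evoked by […].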

endogenous CaCC = experiment: Endogenous Ca2+-activated channel (CaCC) activation in Xenopus oocytes; assay type: cell-based, Xenopus laevis
BKCaK+ channels = experiment: BKCa K+ channel activity in Xenopus oocytes, two-electrode voltage clamp; assay type: cell-based
Outline: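 Two-electrode voltage clamp was performed at room temperature on stage V-VI Xenopus oocytes. Oocytes were perfused with Cl−/Ca2+-free solution, pH 7.4, containing 500 μM anthracene-9-carboxylic acid. Outward currents were recorded on 400 ms steps from −80 mV holding to +40 mV.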

[2] = Kil6425 10 μM, U73122 1 μM, 2-APB 100 μM, BAPTA 100 μM 3 h

Molecule | effect on NMDA-induced inward current [1, 2] | effect on gintonin-induced NMDA receptor activation ([1]; gintonin 1 μg/ml, Kil6425 10 μM, U73122, U73343 1 μM, 2-APB 100 μM, BAPTA 100 μM 3 h, genistein 10 μM, PP2, PP3 30 μM) | effect on gintonin-induced CaCC activation (endogenous CaCC; [2]) | effect on gintonin-induced BKCaK+ channel activation (BKCaK+ channels; Kil6425 10 μM, U73122, U73343 1 μM, 2-APB 100 μM, BAPTA-AM, PMA 1 μM) | ED50, NMDA receptor-mediated inward currents ([1]; NMDA receptor-expressing Xenopus oocytes) [µg/mL] | CaCC activation (endogenous CaCC; gintonin 1 μg/ml, NMDA receptor-expressing Xenopus oocytes) | ED50, BKCaK+ channel activation (BKCaK+ channels; BKCaK+ channels expressed in Xenopus oocytes) [µg/mL] | BKCa channel activity on repetitive treatment (desensitization) (BKCaK+ channels; repetitive treatments, data not shown)
Cc1noc(-c2ccc(CSCCC(=O)O)cc2)c1NC(=O)OC(C)c1ccccc1Cl (centres unmarked) [Kil6425] | had no influences on NMDA-NMDA receptor activation | blocked gintonin-induced NMDA receptor activation | reduced gintonin-induced CaCC activation | reduced the gintonin-induced activation of BKCaK^+ channels |  |  |  | 
B1 |  |  |  |  | 0.49 ± 0.10 | increases CaCC | 0.71 ± 0.08 | Repetitive treatments of gintonin reduced BKa channel activity
